Measurements as given in patent US10239889B1, “Pentacyclic compound” (Eisai R&D Management Co., Ltd., priority 2017, dated 2019).

System: human tau P301S transgenic mice
Assay: Evaluation in human tau P301S transgenic mouse: ChAT positive cells in the medial septal area
Assay type: in vivo
Details: mean±SEM
From the text: Evaluation in Human Tau P301S Transgenic Mouse
(1) Compound Administration
In this study, the test compounds were orally administered to human tau P301S transgenic mice once a day for three months from four-month-old to seven-month-old. The vehicle used was 0.01 mol/L hydrochloric acid.
At the initial day of the administration (four-month-old) and at the next day of the final administration, mice of vehicle administration group and test compound administration group were anesthetized under pentobarbital (50 mg/kg, i.p.) and perfused with PBS. After the perfusion, the forebrain including the medial septal area was collected and fixed with 4% paraformaldehyde.
(3) Preparation of Brain Coronal Frozen Section
The collected forebrain including the medial septal area was immersed and shaken overnight in 4% paraformaldehyde. […]
The prepared brain coronal frozen sections were stained with DAB (DAB PEROXIDASE SUBSTRATE KIT (Vector, SK-4100)) using a ChAT antibody (Santa Cruz, S.C.-20672) as a primary antibody. The section image including the medial septal area as shown in “The mouse Brain in stereotaxic coordinates” (COMPACT THIRD EDITION, Keith B.J. Franklin & George Paxinos) was taken by an all-in-one fluorescence microscope (KEYENCE, BZ-X710) and ChAT positive cells around the major axis of the medial septal area were counted by BZ analysis software (KEYENCE). […] Data are expressed as the mean±SEM. […]

SMILES	Ratio (%) of number of ChAT positive cells compared to that in the initial administration (oral 5 mg/kg once a day for three months (4 to 7 months old))	Ratio (%) of number of ChAT positive cells compared to that in the initial administration (oral 10 mg/kg once a day for three months (4 to 7 months old))
CN1CCc2c(sc3nc4n(c(=O)c23)-c2sccc2C(=O)N(C)C4)C1 [Example 3, 5,10-dimethyl-5,6,9,10,11,12-hexahydropyrido[4″,3″:4′,5′]thieno[2′,3′:4,5]pyrimido[1,2-a]thieno[3,2-f][1,4]diazepine-4,13-dione]	105.3 ± 4.3^# %	–
CN1CCc2c(sc3nc4n(c(=O)c23)-c2ccc(F)cc2C(=O)N(C)C4)C1 [Example 1]	–	105.0 ± 4.0^# %
